Source: patent US20060116390A1, “Hepatitis c virus inhibitors” (priority 2003, published 2006)
Like-named read-outs stand apart in the source and are kept apart here.

Tested on: HCV proteins in Rep5.1 cells (replicon cell line)
Experiment: Inhibitory activity of HCV: cell-based ELISA in replicon cell line Rep5.1 (decrease of HCV proteins)
Parameters: species or system hepatitis C virus
Conditions: Rep5.1 cells, 72 hours with drug
Summary of the method: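 Rep5.1 replicon cells (5000/well, DMEM-10 with 500 μg/ml G418) were given serially diluted drug 4 h after seeding. After 72 h, cells were fixed in methanol/acetone and HCV proteins detected by cell-based ELISA using replicon-specific patient plasma antibodies. IC50 is the concentration giving 50% protein decrease versus the no-drug control.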

[1] = Hepatitis C virus, 72 h, concentration at which 50% of HCV proteins was decreased, Table 2, read-out: IC50
[2] = Hepatitis C virus, 72 h, decrease of HCV proteins measured by HCV antibody, Table 1, read-out: Level (IC50 values classified)
[3] = concentration at which 50% of HCV proteins was decreased, Table 2, read-out: IC50

Work on `CC1=C(C(=O)OCc2cccc(C#N)c2)CNC(=S)N1` [Compound 48, 6-methyl-2-thioxo-1,2,3,4-tetrahydro-pyrimidine-5-carboxylic acid 3-cyano-benzyl ester] yielded an IC50 [1] of 30 µM and an IC50 [2] of 10 to 20 µM.

In the case of `CC1=C(C(=O)OCc2cc(F)cc(F)c2)C(CO)NC(=S)N1` (stereo not shown) [71″, 4-hydroxymethyl-6-methyl-2-thioxo-1,2,3,4-tetrahydro-pyrimidine-5-carboxylic acid 3,5-difluoro-benzyl ester], the IC50 [1] is reported as > 100 µM and the IC50 [2] is reported as > 20 µM.

In the case of `COc1ccc(C2(COC(=O)C3=C(C)NC(=S)NC3CF)CCCC2)cc1` (stereo not shown) [64′, 4-fluoromethyl-6-methyl-2-thioxo-1,2,3,4-tetrahydro-pyrimidine-5-carboxylic acid 1-(4-methoxy-phenyl)-cyclopentylmethyl ester], the IC50 [1] is reported as 3 µM and the IC50 [2] is reported as 1 to 10 µM.

For `COc1ccc(COC(=O)C2=C(C)NC(=S)NC2)cc1C` [Compound 176, 6-methyl-2-thioxo-1,2,3,4-tetrahydro-pyrimidine-5-carboxylic acid 4-methoxy-3-methyl-benzyl ester], the IC50 [1] was 2.7 µM and the IC50 [2] was 1 to 10 µM.

`CC1=C(C(=O)OCCc2cccc([N+](=O)[O-])c2)C(COC(=O)c2ccccc2)NC(=S)N1` (stereo not shown) [89″, 4-benzoyloxymethyl-6-methyl-2-thioxo-1,2,3,4-tetrahydro-pyrimidine-5-carboxylic acid 2-(3-nitro-phenyl)-ethyl ester] was tested, and the IC50 [1] was 6.8 µM and the IC50 [2] was 1 to 10 µM.

With `CC1=C(C(=O)OCc2ccccc2)CNC(=S)N1` [Compound 6, 6-methyl-2-thioxo-1,2,3,4-tetrahydro-pyrimidine-5-carboxylic acid benzyl ester] the IC50 [1] was 1 µM and the IC50 [2] was < 1 µM.

`CC1=C(C(=O)OCC#Cc2ccccc2)C(CF)NC(=S)N1` (stereo not shown) [45′, 4-fluoromethyl-6-methyl-2-thioxo-1,2,3,4-tetrahydro-pyrimidine-5-carboxylic acid 3-phenyl-prop-2-inyl ester] gave an IC50 [3] of 0.8 µM.

In the case of `CC1=C(C(=O)OCCc2ccc(F)c(F)c2)C(CF)NC(=S)N1` (stereo not shown) [90′, 4-fluoromethyl-6-methyl-2-thioxo-1,2,3,4-tetrahydro-pyrimidine-5-carboxylic acid 2-(3,4-difluoro-phenyl)-ethyl ester], the IC50 [1] is reported as 0.8 µM and the IC50 [2] is reported as < 1 µM.

For `CC1=C(C(=O)OCc2cccc(Oc3ccccc3)c2)C(CO)NC(=S)N1` (stereo not shown) [46″, 4-hydroxymethyl-6-methyl-2-thioxo-1,2,3,4-tetrahydro-pyrimidine-5-carboxylic acid 3-phenoxy-benzyl ester], the IC50 [1] was < 0.4 µM and the IC50 [2] was < 1 µM.

For `CC#CCCOC(=O)C1=C(C)NC(=S)NC1` [Compound 160, 6-methyl-2-thioxo-1,2,3,4-tetrahydro-pyrimidine-5-carboxylic acid pent-3-inyl ester], the IC50 [3] was 12 µM.

In the case of `CC1=C(C(=O)OCc2cc3ccsc3s2)CNC(=S)N1` [Compound 235, 6-methyl-2-thioxo-1,2,3,4-tetrahydro-pyrimidine-5-carboxylic acid thieno[2,3-b]thiophen-2-ylmethyl ester], the IC50 [1] is reported as 0.9 µM and the IC50 [2] is reported as < 1 µM.

`CC1=C(C(=O)OCc2ccccc2C(F)(F)F)CNC(=S)N1` [Compound 100, 6-methyl-2-thioxo-1,2,3,4-tetrahydro-pyrimidine-5-carboxylic acid 2-trifluoromethyl-benzyl ester] was tested, and the IC50 [1] was < 0.4 µM and the IC50 [2] was < 1 µM.

Compound `CC1=C(C(=O)OCCC2CCCC2)C(CO)NC(=S)N1` (stereo not shown) [36″, 4-hydroxymethyl-6-methyl-2-thioxo-1,2,3,4-tetrahydro-pyrimidine-5-carboxylic acid 2-cyclopentyl-ethyl ester] has an IC50 [1] of 3 µM and an IC50 [2] of 1 to 10 µM.

With `CC1=C(C(=O)OCCc2ccsc2)C(c2ccccc2)NC(=S)N1` (stereo not shown) [4′, 6-methyl-4-phenyl-2-thioxo-1,2,3,4-tetrahydro-pyrimidine-5-carboxylic acid 2-thiophen-3-yl-ethyl ester] the IC50 [1] was 51 µM and the IC50 [2] was > 20 µM.

For `CC1=C(C(=O)OCCc2ccsc2Br)CNC(=S)N1` [Compound 247, 6-methyl-2-thioxo-1,2,3,4-tetrahydro-pyrimidine-5-carboxylic acid 2-(2-bromo-thiophen-3-yl)-ethyl ester], the IC50 [1] was < 0.4 µM and the IC50 [2] was < 1 µM.

For `CCOc1ccccc1COC(=O)C1=C(C)NC(=S)NC1CF` (stereo not shown) [Compound 263, 4-fluoromethyl-6-methyl-2-thioxo-1,2,3,4-tetrahydro-pyrimidine-5-carboxylic acid 2-ethoxy-benzyl ester], the IC50 [1] was 1.7 µM and the IC50 [2] was < 1 µM.

`COC(=O)c1ccc(COC(=O)C2=C(C)NC(=S)NC2)cc1` [Compound 11, 6-methyl-2-thioxo-1,2,3,4-tetrahydro-pyrimidine-5-carboxylic acid 4-methoxycarbonyl-benzyl ester] was tested, and the IC50 [1] was > 100 µM and the IC50 [2] was > 20 µM.

Compound `CC1=C(C(=O)OCc2ccc(-c3cccs3)s2)C(CF)NC(=S)N1` (stereo not shown) [62′, 4-fluoromethyl-6-methyl-2-thioxo-1,2,3,4-tetrahydro-pyrimidine-5-carboxylic acid [2,2′]bithiophenyl-5-ylmethyl ester] has an IC50 [1] of 2 µM and an IC50 [2] of 1 to 10 µM.

Work on `O=C(OCCc1ccsc1)C1=C(CF)NC(=S)NC1` [57′, 6-fluoromethyl-2-thioxo-1,2,3,4-tetrahydro-pyrimidine-5-carboxylic acid 2-thiophen-3-yl-ethyl ester] yielded an IC50 [1] of 10 µM and an IC50 [2] of 1 to 10 µM.

Work on `CC1=C(C(=O)OCCc2ccc(C)cc2)C(CO)NC(=S)N1` (stereo not shown) [63″, 4-hydroxymethyl-6-methyl-2-thioxo-1,2,3,4-tetrahydro-pyrimidine-5-carboxylic acid 2-p-tolyl-ethyl ester] yielded an IC50 [1] of 1.6 µM and an IC50 [2] of 1 to 10 µM.

Compound `CC1=C(C(=O)OCCCCSc2nc3ccccc3s2)C(CF)NC(=S)N1` (stereo not shown) [55′, 4-fluoromethyl-6-methyl-2-thioxo-1,2,3,4-tetrahydro-pyrimidine-5-carboxylic acid 4-(benzothiazol-2-ylsulfanyl)-butyl ester] has an IC50 [1] of 1.6 µM and an IC50 [2] of 1 to 10 µM.

`CC1=C(C(=O)OCCCc2cccnc2)CNC(=S)N1` [Compound 158, 6-methyl-2-thioxo-1,2,3,4-tetrahydro-pyrimidine-5-carboxylic acid 3-pyridin-3-yl-propyl ester] was tested, and the IC50 [1] was > 100 µM and the IC50 [2] was > 20 µM.

Compound `CC1=C(C(=O)OCCc2ccccc2Cl)C(CO)NC(=S)N1` (stereo not shown) [41″, 4-hydroxymethyl-6-methyl-2-thioxo-1,2,3,4-tetrahydro-pyrimidine-5-carboxylic acid 2-(2-chloro-phenyl)-ethyl ester] has an IC50 [1] of 7.2 µM and an IC50 [2] of 1 to 10 µM.

`CC1=C(C(=O)OCCc2ccsc2)C(c2cnc[nH]2)NC(=S)N1` (stereo not shown) [50′, 4-(3H-imidazol-4-yl)-6-methyl-2-thioxo-1,2,3,4-tetrahydro-pyrimidine-5-carboxylic acid 2-thiophen-3-yl-ethyl ester] was tested, and the IC50 [1] was > 100 µM and the IC50 [2] was > 20 µM.

For `CSCCCOC(=O)C1=C(C)NC(=S)NC1CO` (stereo not shown) [29″, 4-hydroxymethyl-6-methyl-2-thioxo-1,2,3,4-tetrahydro-pyrimidine-5-carboxylic acid 3-methylsulfanyl-propyl ester], the IC50 [1] was > 100 µM and the IC50 [2] was > 20 µM.

For `C#CCCOC(=O)C1=C(C)NC(=S)NC1` [Compound 129, 6-methyl-2-thioxo-1,2,3,4-tetrahydro-pyrimidine-5-carboxylic acid but-3-inyl ester], the IC50 [3] was > 100 µM.

For `CC1=C(C(=O)OC(C)CCc2ccccc2)CNC(=S)N1` (stereo not shown) [Compound 42, 6-methyl-2-thioxo-1,2,3,4-tetrahydro-pyrimidine-5-carboxylic acid 1-methyl-3-phenyl-propyl ester], the IC50 [1] was 0.5 µM and the IC50 [2] was < 1 µM.

`CC1=C(C(=O)OCCc2ccc(Cl)cc2)CNC(=S)N1` [Compound 94, 6-methyl-2-thioxo-1,2,3,4-tetrahydro-pyrimidine-5-carboxylic acid 2-(4-chloro-phenyl)-ethyl ester] was tested, and the IC50 [1] was < 0.4 µM and the IC50 [2] was < 1 µM.

`CC1=C(C(=O)SCc2ccco2)C(CF)NC(=S)N1` (stereo not shown) [39′, 4-fluoromethyl-6-methyl-2-thioxo-1,2,3,4-tetrahydro-pyrimidine-5-carbothioic acid S-furan-2-ylmethyl ester] showed an IC50 [1] of 2.6 µM and an IC50 [2] of 1 to 10 µM.

With `O=C(OCc1ccccc1)C1=C(C(=O)OCc2ccccc2)NC(=S)NC1` [Compound 87, 2-thioxo-1,2,3,6-tetrahydro-pyrimidine-4,5-dicarboxylic acid dibenzyl ester] the IC50 [1] was 56 µM and the IC50 [2] was > 20 µM.

For `CC1=C(C(=O)OCCc2ccccc2F)CNC(=S)N1` [Compound 116, 6-methyl-2-thioxo-1,2,3,4-tetrahydro-pyrimidine-5-carboxylic acid 2-(2-fluoro-phenyl)-ethyl ester], the IC50 [1] was 0.5 µM and the IC50 [2] was < 1 µM.

For `CC1=C(C(=O)OC(c2ccccc2)c2ccccc2C)CNC(=S)N1` (stereo not shown) [Compound 57, 6-methyl-2-thioxo-1,2,3,4-tetrahydro-pyrimidine-5-carboxylic acid phenyl-o-tolyl-methyl ester], the IC50 [1] was 3.5 µM and the IC50 [2] was 1 to 10 µM.

In the case of `COc1ccc(COC(=O)C2=C(C)NC(=S)NC2)cc1OC` [Compound 40, 6-methyl-2-thioxo-1,2,3,4-tetrahydro-pyrimidine-5-carboxylic acid 3,4-dimethoxy-benzyl ester], the IC50 [1] is reported as 92 µM and the IC50 [2] is reported as > 20 µM.

In the case of `COc1ccccc1CCOC(=O)C1=C(C)NC(=S)NC1CO` (stereo not shown) [9″, 4-hydroxymethyl-6-methyl-2-thioxo-1,2,3,4-tetrahydro-pyrimidine-5-carboxylic acid 2-(2-methoxy-phenyl)-ethyl ester], the IC50 [1] is reported as 20 µM and the IC50 [2] is reported as 10 to 20 µM.

`COc1ccc(CCCOC(=O)C2=C(C)NC(=S)NC2)cc1` [Compound 88, 6-methyl-2-thioxo-1,2,3,4-tetrahydro-pyrimidine-5-carboxylic acid 3-(4-methoxy-phenyl)-propyl ester] was tested, and the IC50 [1] was 0.7 µM and the IC50 [2] was < 1 µM.
